# From patent publication US9034871B2, “Compounds for Alzheimer's disease” (priority 2004, dated 2015)
# Tested on: Aβ42
# Test: Detection of secreted Aβ42 with Biosource ELISA kit in H4 cells expressing APP695
# Assay type: cell-based
# Details: Ab42 lowering, cell based assay; read-out: Ab42 IC50
# Method: The present invention provides compositions and methods for lowering Aβ42 levels. To test whether compounds and compositions are capable of modulating Aβ levels, a sandwich enzyme-linked immunosorbent assay (ELISA) is employed to measure secreted Aβ (Aβ42 and/or Aβ40) levels. In this example, H4 cells expressing wide type APP695 are seeded at 200,000 cells/per well in 6 well plates, and incubated at 37 degree C. with 5% CO2 overnight. Cells are treated with 1.5 ml medium containing vehicle (DMSO) or a test compound at 1.25 μM, 2.5 μM, 5.0 μM and 10.0 μM (as well as other concentration if desirable) concentration for 24 hours or 48 hours. The supernatant from treated cells is collected into eppendorf tubes and frozen at −80 degree C. for future analysis.
# The amyloid peptide standard is reconstituted and frozen samples are thawed. The samples and standards are diluted with appropriate diluents and the plate is washed 4 times with Working Wash Buffer and patted dry on a paper towel. 100 μL per well of peptide standards, controls, and dilutions of samples to be analyzed is added. The plate is incubated for 2 hours while shaking on an orbital plate shaker at RT. The plate is then washed 4 times with Working Wash Buffer and patted dry on a paper towel. Detection Antibody Solution is poured into a reservoir and 100 μL /well of Detection Antibody Solution is immediately added to the plate. The plate is incubated at RT for 2 hours while shaking and then washed four times with Working Wash Buffer and patted dry on a paper towel. Secondary Antibody Solution is then poured into a reservoir and 100 μL /well of Secondary Antibody Solution is immediately added to the plate. The plate is incubated at RT for 2 hours with shaking, washed 5 times with Working Wash Buffer, and patted dry on a paper towel.
# 100 μL of stabilized chromogen is added to each well and the liquid in the wells begins to turn blue. The plate is incubated for 30 minutes at room temperature and in the dark. 100 μL of stop solution is added to each well and the plate is tapped gently to mix resulting in a change of solution color from blue to yellow. The absorbance of each well is read at 450 nm having blanked the plate reader against a chromogen blank composed of 100 μL each of stabilized chromogen and stop solution. The plate is read within 2 hours of adding the stop solution. The absorbance of the standards is plotted against the standard concentration and the concentrations of unknown samples and controls are calculated.
# These compounds were synthesized via the indicated synthetic route. Ab42 IC50 (uM) refers to IC50 value for Ab42 lowering in e.g., the assay described in Example 6.
row,IC50,SMILES
1,13.2 µM,O=C(O)c1cccc(-n2c(-c3ccsc3)cc3c4ccccc4ccc32)c1 [3-(2-thiophen-3-yl-benzo[e]indol-3-yl) benzoic acid]
2,9.6 µM,"c1ccc(-c2cc(-c3cc4c(n3-c3cccc(-c5nn[nH]n5)c3)CCc3ccccc3-4)on2)cc1 [drawing 1708, 2-(3-phenylisoxazol-5-yl)-3-[3-(2H-tetrazol-5-yl)-phenyl]-4,5-dihydro-3H-benzo[e]indole]"
3,> 100 µM,O=C(O)c1cccc(-c2cc3c(n2-c2cccnc2)CCc2ccccc2-3)c1 [3-(3-pyridin-3-yl-4 5-dihydro-3H-benzo[e]indol-2-yl) benzoic acid]
4,32 µM,c1ccc(-c2cc3c4ccccc4ccc3n2-c2cccc(-c3nn[nH]n3)c2)nc1 [2-pyridin-2-yl-3-[3-(2H-tetrazol-5-yl)-phenyl]-3H-benzo[e]indole]
5,33 µM,O=C(O)c1ccc(-n2c(-c3cc(-c4ccccc4)no3)cc3c4ccccc4ccc32)o1 [5-[2-(3-phenylisoxazol-5-yl)-benzo[e]indol-3-yl] furan-2-carboxylic acid]
6,14 µM,"CC(C)(C)C1CCc2c(cc(-c3ccc(C(F)(F)F)cc3)n2-c2ccc(C(=O)O)o2)C1 (centres unmarked) [5-[5-tButyl-2-(4-trifluoromethylphenyl)-4,5,6,7-tetrahydroindol-1-yl] furan-2-carboxylic acid]"
7,40 µM,"O=C(O)c1ccc(-n2c(-c3ccccc3)cc3c2CCC(C2CCCCC2)C3)o1 (centres unmarked) [5-(5-cyclohexyl-2-phenyl-4,5,6,7-tetrahydroindol-1-yl)-furan-2-carboxylic acid]"
8,56 µM,"c1cc(-c2nn[nH]n2)cc(-n2c(-c3ccc4c(c3)OCO4)cc3c4ccccc4ccc32)c1 [2-benzo[1,3]dioxol-5-yl-3-[3-(2H-tetrazol-5-yl)-phenyl]-3H-benzo[e]indole]"
9,8.9 µM,"O=C(O)c1ccc(-n2c(-c3ccc(Cl)c(Cl)c3)cc3c2CC(C(F)(F)F)CC3)o1 (centres unmarked) [5-[2-(3,4-dichlorophenyl)-6-trifluoromethyl-4,5,6,7-tetrahydroindol-1-yl]-furan-2-carboxylic acid]"
10,3.7 µM,"CC(C)(C)C1CCc2c(cc(-c3ccccc3)n2-c2ccc(C(=O)O)o2)C1 (centres unmarked) [5-(5-tertButyl-2-phenyl-4,5,6,7-tetrahydroindol-1-yl) furan-2-carboxylic acid]"
11,65 µM,"O=C(O)c1cccc(-n2c(-c3ccncc3)cc3c2CCc2ccccc2-3)c1 [3-(2-pyridin-4-yl-4,5-dihydrobenzo[e]indol-3-yl) benzoic acid]"
12,7 µM,"O=C(O)c1ccc(-n2c(-c3ccc(Cl)c(Cl)c3)cc3c4ccccc4ccc32)o1 [5-[2-(3,4-dichlorophenyl)-benzo[e]indol-3-yl]-furan-2-carboxylic acid]"
13,> 100 µM,"COC(=O)c1ccc(-n2c(-c3ccccc3)cc3c2CCC(C(C)(C)C)C3)o1 (centres unmarked) [5-(5-tertButyl-2-phenyl-4,5,6,7-tetrahydroindol-1-yl) furan-2-carboxylic acid methyl ester]"
14,1.5 µM,"Cc1onc(-c2ccccc2)c1-c1cc2c(n1-c1ccc(CCCC(=O)O)cc1)CCc1ccccc1-2 [4-{4-[2-(5-methyl-3-phenylisoxazol-4-yl)-4,5-dihydrobenzo[e]indol-3-yl]-phenyl} butyric acid]"
15,2.2 µM,O=C(O)c1cccc(-n2c(-c3cc(-c4ccccc4)no3)cc3c2CCc2ccccc2-3)c1 [drawing 1709]
16,18 µM,"CCC(C)(C)C1CCc2c(cc(-c3cc4ccccc4o3)n2-c2ccc(C(=O)O)o2)C1 (centres unmarked) [5-[2-benzofuran-2-yl-5-(1,1-dimethylpropyl) 4,5,6,7-tetrahydroindol-1-yl]-furan-2-carboxylic acid]"

row,IC50,SMILES
1,40 µM,Cc1onc(-c2ccccc2)c1-c1cc2c3ccccc3ccc2n1-c1cccc(C(=O)O)c1 [3-[2-(5-methyl-3-phenylisoxazol-4-yl)-benzo[e]indol-3-yl] benzoic acid]
2,33 µM,"O=C(O)c1cccc(-n2c(-c3ccc(-c4ccc(Cl)cc4Cl)o3)cc3c4ccccc4ccc32)c1 [3-{2-[5-(2,4-dichlorophenyl)-furan-2-yl]-benzo[e]indol-3-yl} benzoic acid]"
3,> 100 µM,"COc1ccc(-c2cc3c(n2-c2nc(C(=O)O)cs2)CCC(C(F)(F)F)C3)c(OC)c1 (centres unmarked) [2-[2-(2,4-dimethoxyphenyl)-5-trifluoromethyl-4,5,6,7-tetrahydroindol-1-yl]-thiazole-4-carboxylic acid]"
4,73 µM,"c1cc(-c2nn[nH]n2)cc(-n2c(-c3ccncc3)cc3c2CCc2ccccc2-3)c1 [2-pyridin-4-yl-3-[3-(2H-tetrazol-5-yl)-phenyl]-4,5-dihydro-3H-benzo[e]indole]"
5,8.8 µM,"O=C(O)CCCc1ccc(-n2c(-c3ccc4c(c3)OCO4)cc3c2CCc2ccccc2-3)cc1 [4-[4-(2-benzo[1,3]dioxol-5-yl-dihydrobenzo[e]indol-3-yl)-phenyl] butyric acid]"
6,43 µM,"c1ccc(-c2cc3c(n2-c2cccc(-c4nn[nH]n4)c2)CCc2ccccc2-3)nc1 [2-pyridin-2-yl-3-[3-(2H-tetrazol-5-yl)-phenyl]-4,5-dihydro-3H-benzo[e]indole]"
7,68 µM,"O=C(O)c1ccc(-n2c(-c3ccc(N4CCOCC4)cc3)cc3c2CCC(C(F)(F)F)C3)o1 (centres unmarked) [5-[2-(4-morpholin-4-yl-phenyl)-5-trifluoromethyl-4,5,6,7-tetrahydroindol-1-yl]-furan-2-carboxylic acid]"
8,> 100 µM,"O=C(O)c1cccc(-n2c(-c3cccnc3)cc3c2CCc2ccccc2-3)c1 [3-(2-pyridin-3-yl-4,5-dihydrobenzo[e]indol-3-yl) benzoic acid]"
9,> 100 µM,"O=C(O)c1cccc(-n2nc(-c3ccccc3)cc2-c2ccccc2)c1 [3-(3,5-diphenyl-pyrazol-1-yl)-benzoic acid]"
10,79 µM,O=C(O)c1cccc(-n2c(-c3ccccn3)cc3c4ccccc4ccc32)c1 [3-(2-pyridin-2-yl-benzo[e]indol-3-yl) benzoic acid]
11,70 µM,"O=C(O)c1cccc(-n2c(-c3ccccn3)cc3c2CCc2ccccc2-3)c1 [3-(2-pyridin-2-yl-4,5-dihydrobenzo[e]indol-3-yl) benzoic acid]"
12,3.7 µM,"CCC(C)(C)C1CCc2c(cc(-c3cc4ccccc4o3)n2-c2cccc(C(=O)O)c2)C1 (centres unmarked) [3-[2-benzofuran-2-yl-5-(1,1-dimethylpropyl) 4,5,6,7-tetrahydroindol-1-yl] benzoic acid]"
13,31 µM,c1cc(-c2nn[nH]n2)cc(-n2c(-c3ccsc3)cc3c4ccccc4ccc32)c1 [3-[3-(2H-tetrazol-5-yl)-phenyl]-2-thiophen-3-yl-3H benzo[e]indole]
14,> 100 µM,"COc1ccc(-c2cc3c(n2-c2nc(C(=O)O)cs2)CCC(C(F)(F)F)C3)cc1OC (centres unmarked) [2-[2-(3,4-dimethoxyphenyl)-5-trifluoromethyl-4,5,6,7-tetrahydroindol-1-yl]-thiazole-4-carboxylic acid]"
15,22 µM,O=C(O)c1ccc(-n2c(-c3cc4ccccc4o3)cc3c4ccccc4ccc32)o1 [5-(2-benzofuran-2-yl-benzo[e]indol-3-yl) furan-2-carboxylic acid]

# Same assay, conditions: IC50 value for Ab42 lowering in e.g. the assay described in Example 6; read-out: Ab42 IC50
row,IC50,SMILES
1,45 µM,"O=C(O)c1ccc(-c2cc3c(n2-c2ccccc2)CCc2ccccc2-3)cc1 [Compound 69, 4-(3-phenyl-4,5-dihydro-3H-benzo[e]indol-2-yl) benzoic acid]"
2,20 µM,"CC(C)(C)C1CCc2c(cc(-c3ccccc3)n2-c2cccc(CCC(=O)O)c2)C1 (centres unmarked) [Compound 85, 3-[3-(5-tert-Butyl-2-phenyl 4,5,6,7-tetrahydroindol-1-yl)-phenyl] propionic acid]"
3,35 µM,"O=C(O)CCCn1c(-c2ccccc2)cc2c1CCc1ccccc1-2 [Compound 67, 4-(2-phenyl-4,5-dihydrobenzo[e]indol-3-yl) butyric acid]"
4,54 µM,"O=C(O)CCc1cccc(-n2c(-c3ccccc3)cc3c2CCCC3)c1 [Compound 90, 3-[3-(2-phenyl-4,5,6,7-tetrahydroindol-1-yl)-phenyl] propionic acid]"
5,27 µM,"O=C(O)Cc1ccccc1-n1c(-c2ccccc2)cc2c1CCc1ccccc1-2 [Compound 92, [2-(2-phenyl-4,5-dihydrobenzo[e]indol-3-yl)-phenyl] acetic acid]"
6,3 µM,"CC1CCCc2c1cc(-c1ccccc1)n2-c1cccc(C(=O)O)c1 (centres unmarked) [Compound 91, 3-(4-methyl-2-phenyl-4,5,6,7-tetrahydroindol-1-yl) benzoic acid]"
7,30 µM,"O=C(O)CCCc1ccc(-n2c(-c3ccccc3)cc3c2CCCC3)cc1 [Compound 86, 4-[4-(2-phenyl 4,5,6,7-tetrahydroindol-1-yl)-phenyl] butyric acid]"
